Experiments:
[1] = test system: T cell-depleted cell group (B cells); test: mitogenicity comparison, 3H-thymidine incorporation; type: cell-based, mice; conditions: for Proliferation B cells: 5 μg/ml; for mitogenicity (in words): B cell-enriched group
Excerpt: (§1) In this example, the action mode of angelan was compared with those of other lymphocyte mitogens in three different lymphocyte groups. Lipopolysaccharide (LPS) was employed to induce the proliferation of B cell while phytohemagglutinin (PHA) and concanavalin A (Con A) were used as T cell mitogens. As a comitogen, that is, in order to induce both T-cells and B-cells to proliferate, pokeweed mitogen (PWM) was used.
(§2) Angelan was given to three different cell groups: total cell group including T- and B-cells, T cell-depleted cell group, and B cell-depleted cell group. Each cell groups were treated with angelan or one of LPS, PWM, Con A and PHA. After incubation, lymphocyte proliferation was measured by the incorporation of 3H-thymidine into the cellular DNA.

[2] = test system: B cell-depleted cell group (T cells); test: as above; type: cell-based, mice; conditions: 5 μg/ml
Excerpt: as §1, §2

[3] = test system: total cell group including T- and B-cells; test: as above; type: cell-based, mice; conditions: 5 μg/ml
Excerpt: as §1, §2

[4] = test system: B16F10 cancer cells; test: direct cytotoxicity on cancer cells; type: cell-based; conditions: for survival number of treated cells as ratio to non-treated cells: 2 days
Experimental: Whether the anticancer effect of angelan came from specific mediation by cytotoxic T cells or from nonspecific mediation by macrophages and natural killer cells, was proven as follows. B16F10 cancer cells were treated with angelan and adriamicin at a dose of 0.3 to 30 μg/ml. After incubation for 2 days, the number of the survived cells was countered. The survival number of the treated cells was expressed as a ratio compared with the number of the non-treated cells.

[5] = test system: B16F10 melanoma; test: host resistance model to syngeneic tumors; type: in vivo, BDF1 mice; conditions: for Viability: relative to non-treated mice; for Survival Animals (10 in total): survived 60 days
Experimental: The host resistance model to syngeneic tumors was prepared by the intraperitoneal transplantation of B16F10 melanoma to BDF1 mice. After transplantation, angelan was administered at a dose of 100 mg/kg/day while adriamicin was administered at a dose of 0.1 to 0.3 mg/kg. The survival rates of the treated mice was based on the viability of non-treated mice, and the number of the animals which survived for 60 days after the implantation, was counted.

Row | Molecule | Proliferation B cells [1] | mitogenicity (in words) [1] | Proliferation T cells [2] | Proliferation B/T cells [3] | further results
1 | Lipopolysaccharide [LPS] | 11550 cpm/200,000 cells | had an effect | 869 cpm/200,000 cells | 11665 cpm/200,000 cells | 
2 | concanavalin A [Con A] | 6566 cpm/200,000 cells |  | 3929 cpm/200,000 cells | 6014 cpm/200,000 cells | 
3 | pokeweed mitogen [PWM] | 358 cpm/200,000 cells | had an effect | 12171 cpm/200,000 cells | 10212 cpm/200,000 cells | 
4 | COc1cccc2c1C(=O)c1c(O)c3c(c(O)c1C2=O)C[C@@](O)(C(=O)CO)C[C@@H]3O[C@H]1C[C@H](N)[C@H](O)[C@H](C)O1 [Adriamicin] |  |  |  |  | cytotoxicity on cancer cells (in words) [4]: showed cytotoxicity on cancer cells; survival number of treated cells as ratio to non-treated cells ([4]; 0.3 μg/ml): 56; survival number of treated cells as ratio to non-treated cells ([4]; 1 μg/ml): 29; survival number of treated cells as ratio to non-treated cells ([4]; 3 μg/ml): 9; survival number of treated cells as ratio to non-treated cells ([4]; 10 μg/ml): 0; survival number of treated cells as ratio to non-treated cells ([4]; 30 μg/ml): 0; Viability ([5]; adriamicin 0.1 mg/kg): 195%; Survival Animals (10 in total) ([5]; adriamicin 0.1 mg/kg): 0; Viability ([5]; adriamicin 0.3 mg/kg): >240%; Survival Animals (10 in total) ([5]; adriamicin 0.3 mg/kg): 2
5 | phytohemagglutinin [PHA] | 446 cpm/200,000 cells |  | 3127 cpm/200,000 cells | 1049 cpm/200,000 cells | 

Reference: patent publication US6420348B1, “Pectic polysaccharides purified from Angelica gigas nakai and purification method and use as immunostimulating agent thereof” (Korea Institute of Science and Technology, priority 1997, dated 2002)
